According to the NIST ThermoML archive (doi:10.1021/acs.jced.7b00024):
± gives the expanded uncertainty stated by the source.

Assay: mean ionic activity coefficient (dimensionless); mn = molality of the nth substance listed, in mol/kg
Details: 298.15 K, 100 kPa, Liquid, Potentiometry

[Cl-].[Cs+] [cesium chloride] + O
Details | mean ionic activity coefficient
m1 = 0.0085 | 0.905 ± 0.041
m1 = 0.01 | 0.898 ± 0.041
m1 = 0.028 | 0.843 ± 0.041
m1 = 0.0297 | 0.84 ± 0.041
m1 = 0.0574 | 0.794 ± 0.041
m1 = 0.0706 | 0.778 ± 0.041
m1 = 0.0969 | 0.753 ± 0.041
m1 = 0.1497 | 0.715 ± 0.041
m1 = 0.1937 | 0.692 ± 0.041
m1 = 0.2985 | 0.652 ± 0.041
m1 = 0.3873 | 0.628 ± 0.041
m1 = 0.5981 | 0.588 ± 0.041
m1 = 0.6802 | 0.577 ± 0.041
m1 = 0.9033 | 0.552 ± 0.041
m1 = 1.073 | 0.538 ± 0.041
m1 = 1.504 | 0.513 ± 0.041
m1 = 1.56 | 0.51 ± 0.041
m1 = 2.106 | 0.492 ± 0.041
m1 = 2.152 | 0.491 ± 0.041
m1 = 2.947 | 0.477 ± 0.041
m1 = 3.008 | 0.476 ± 0.041
m1 = 3.944 | 0.472 ± 0.041
m1 = 4.002 | 0.471 ± 0.041
